Assay results as given in patent US20120142771A1, “BIPHENYLACETAMIDE DERIVATIVE” (Dainippon Sumitomo Pharma Co., Ltd., priority 2008, published 2012).
Read-outs that look alike come from different tables or passages of the source.

Columns and labels:
[1] = tested on: maximum electroshock seizure (MES) model; experiment: Maximum electroshock seizure (MES) model test; assay type: in vivo, mice; details: for responders at 50 mg/kg / responders at 100 mg/kg: Mus musculus, po, 1 h, inhibition of hind limb extension; for anticonvulsant action in maximum electroshock seizure (MES) model test: mice, oral 50 or 100 mg/kg, 1 hour after administration
Method in brief: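 Tonic hind-limb extension was elicited by corneal electroshock (60 Hz, 25 mA, 0.2 s) 1 h after oral dosing. Test compounds were given at 50 or 100 mg/kg to groups of 3 male Slc: ddY mice (20-30 g), vehicle controls receiving 0.5% tragacanth or 0.5% methylcellulose solution.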

[2] = tested on: subcutaneously pentetrazol-injected model (scPTZ); experiment: Subcutaneously pentetrazol-injected model (scPTZ) test; assay type: in vivo, mice; details: for responders at 100 mg/kg / responders at 50 mg/kg: Mus musculus, po, 1 h; for anticonvulsant action in subcutaneously pentetrazol-injected model (scPTZ) test: mice, oral 50 or 100 mg/kg
Method in brief: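 Pentetrazol (85 mg/kg, s.c.) was injected one hour after oral test compound at 50 or 100 mg/kg in groups of three male Slc:ddY mice weighing 20-30 g; vehicle controls got 0.5% tragacanth or 0.5% methylcellulose.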

[3] = 50 mg/kg oral, Slc: ddY male mice, 3 per group, electrical stimulation 1 hour after administration, read-out: MES (positive number/tested number) (converted)
[4] = 100 mg/kg oral, Slc: ddY male mice, 3 per group, electrical stimulation 1 hour after administration, read-out: MES (positive number/tested number) (converted)
[5] = 100 mg/kg oral, Slc: ddY male mice, 3 per group, pentetrazol 85 mg/kg s.c. after 1 hour, observed 30 minutes for clonic convulsion, read-out: scPTZ (positive number/tested number) (converted)
[6] = 50 mg/kg oral, Slc: ddY male mice, 3 per group, pentetrazol 85 mg/kg s.c. after 1 hour, observed 30 minutes for clonic convulsion, read-out: scPTZ (positive number/tested number) (converted)
[7] = pentetrazol 85 mg/kg s.c. after 1 hour

SMILES | responders at 50 mg/kg [1, 3] | responders at 100 mg/kg [1, 4] | responders at 100 mg/kg [2, 5] | responders at 50 mg/kg [2, 6] | other results
CNC(=O)Cc1ccc(F)cc1-c1cccc(F)c1 [Example 121] | 0% | 100% | 33.3% | – | –
NC(=O)Cc1ccc(F)cc1-c1ccc(F)cc1 [Example 122] | – | 0% | 66.7% | 0% | –
NC(=O)Cc1ccc(Cl)cc1-c1ccccc1 [Example 123] | – | 100% | 33.3% | – | –
CNC(=O)Cc1ccc(Cl)cc1-c1ccccc1 [Example 124, 2-(5-chlorobiphenyl-2-yl)-N-methylacetamide] | 0% | 100% | 100% | 0% | –
NC(=O)Cc1ccc(Cl)cc1-c1ccccc1F [Example 125, 2-(5-chloro-2′-fluorobiphenyl-2-yl)acetamide] | 66.7% | 100% | 66.7% | 33.3% | –
CNC(=O)Cc1ccc(Cl)cc1-c1ccccc1F [Example 126, 2-(5-chloro-2′-fluorobiphenyl-2-yl)-N-methylacetamide] | 0% | 66.7% | 100% | 66.7% | –
NC(=O)Cc1ccc(Cl)cc1-c1cccc(Cl)c1 [Example 127] | – | 66.7% | 33.3% | – | –
CNC(=O)Cc1ccc(Cl)cc1-c1cccc(Cl)c1 [Example 128] | – | 66.7% | 0% | – | –
NC(=O)Cc1cc(Cl)ccc1-c1ccc(F)cc1 [Example 129] | – | 100% | 33.3% | – | –
CNC(=O)Cc1cc(Cl)ccc1-c1ccc(F)cc1 [Example 130] | – | 100% | 0% | – | –
NC(=O)Cc1cc(F)ccc1-c1ccc(Cl)cc1 [Example 131] | – | 100% | 0% | – | –
CNC(=O)Cc1cc(F)ccc1-c1ccc(Cl)cc1 [Example 132] | – | 100% | 0% | – | –
NC(=O)Cc1cc(F)ccc1-c1cccc(F)c1 [Example 133] | – | 100% | 33.3% | – | –
CNC(=O)Cc1cc(F)ccc1-c1cccc(F)c1 [Example 134] | – | 100% | 0% | – | –
NC(=O)Cc1cc(F)ccc1-c1ccc(C(F)(F)F)cc1 [Example 135] | – | 100% | 0% | – | –
CNC(=O)Cc1cc(F)ccc1-c1ccc(C(F)(F)F)cc1 [Example 136] | – | 100% | 0% | – | –
NC(=O)Cc1cc(C(F)(F)F)ccc1-c1ccc(Cl)cc1 [Example 137] | – | 0% | 66.7% | – | –
CNC(=O)Cc1cc(C(F)(F)F)ccc1-c1ccc(Cl)cc1 [Example 138] | – | 0% | 66.7% | – | –
NC(=O)Cc1cc(Cl)ccc1-c1cccc(F)c1 [Example 139] | – | 66.7% | 33.3% | – | –
NC(=O)Cc1c(F)cccc1-c1cccc(F)c1 [Example 140, 2-(3,3′-difluorobiphenyl-2-yl)acetamide] | 100% | 100% | 66.7% | 66.7% | anticonvulsant action in maximum electroshock seizure (MES) model test [1]: anticonvulsant action was observed; anticonvulsant action in subcutaneously pentetrazol-injected model (scPTZ) test [2, 7]: anticonvulsant action was observed
CNC(=O)Cc1c(F)cccc1-c1cccc(F)c1 [Example 141] | – | 66.7% | 0% | – | –
NC(=O)Cc1cc(Cl)ccc1-c1ccc(C(F)(F)F)cc1 [Example 142, 2-[4-chloro-4′-(trifluoromethyl)biphenyl-2-yl]acetamide] | 33.3% | 66.7% | 66.7% | 100% | –

SMILES | responders at 50 mg/kg [1, 3] | responders at 100 mg/kg [1, 4] | responders at 100 mg/kg [2, 5] | responders at 50 mg/kg [2, 6] | other results
CNC(=O)Cc1cc(Cl)ccc1-c1ccc(C(F)(F)F)cc1 [Example 143] | – | 0% | 100% | – | –
NC(=O)Cc1cc(C(F)(F)F)ccc1-c1cccc(F)c1 [Example 144] | – | 33.3% | 66.7% | – | –
CC(C)(C)NC(=O)Cc1ccccc1-c1ccccc1F [Example 145] | – | 0% | 33.3% | – | –
CNC(=O)Cc1cc(F)c(F)cc1-c1cccc(F)c1 [Example 148] | – | 0% | 33.3% | – | –
NC(=O)Cc1ccc(C(F)(F)F)cc1-c1cccc(F)c1 [Example 149, 2-[3′-fluoro-5-(trifluoromethyl)biphenyl-2-yl]acetamide] | 33.3% | 66.7% | 66.7% | 0% | –
NC(=O)Cc1ccc(F)cc1-c1cc(Cl)cc(Cl)c1 [Example 150, 2-(3′,5′-dichloro-5-fluorobiphenyl-2-yl)acetamide] | 100% | 100% | 100% | 33.3% | –
CNC(=O)Cc1ccc(F)cc1-c1cc(Cl)cc(Cl)c1 [Example 151] | – | 66.7% | 0% | – | –
NC(=O)Cc1ccccc1-c1cc(F)ccc1F [Example 152, 2-(2′,5′-difluorobiphenyl-2-yl)acetamide] | 100% | 100% | 100% | 66.7% | anticonvulsant action in maximum electroshock seizure (MES) model test [1]: anticonvulsant action was observed; anticonvulsant action in subcutaneously pentetrazol-injected model (scPTZ) test [2, 7]: anticonvulsant action was observed
NC(=O)Cc1ccccc1-c1cc(F)cc(F)c1 [Example 153, 2-(3′,5′-difluorobiphenyl-2-yl)acetamide] | 0% | 66.7% | 100% | 0% | –
NC(=O)Cc1ccccc1-c1ccc(F)cc1F [Example 154] | 33.3% | 100% | 33.3% | – | –
NC(=O)C1(c2ccccc2-c2ccccc2)CC1 [Example 155] | – | 0% | 66.7% | 0% | –
CNC(=O)C1(c2ccccc2-c2ccccc2)CC1 [Example 156] | 0% | 100% | 33.3% | – | –
CNC(=O)C1(c2ccccc2-c2ccccc2F)CC1 [Example 157, 1-(2′-fluorobiphenyl-2-yl)-N-methyl-cyclopropane-carboxamide] | 33.3% | 100% | 66.7% | 66.7% | –
NC(=O)C1(c2ccccc2-c2cccc(F)c2)CC1 [Example 158] | – | 0% | 66.7% | – | –
CNC(=O)C1(c2ccccc2-c2cccc(F)c2)CC1 [Example 159, 1-(3′-fluorobiphenyl-2-yl)-N-methyl-cyclopropane-carboxamide] | 33.3% | 66.7% | 66.7% | 33.3% | –
NC(=O)C(F)c1ccccc1-c1cccc(F)c1 (stereo not drawn) [Example 160, 2-fluoro-2-(3′-fluorobiphenyl-2-yl)acetamide] | 33.3% | 66.7% | 100% | 66.7% | –
CNC(=O)C(F)c1ccccc1-c1cccc(F)c1 (stereo not drawn) [Example 161] | – | 66.7% | 0% | – | –
NC(=O)C(F)c1ccccc1-c1ccccc1 (stereo not drawn) [Example 162, 2-(biphenyl-2-yl)-2-fluoroacetamide] | – | – | – | – | responders at 50 mg/kg ([1]; read-out: MES (positive number/tested number), 50 mg/kg oral, Slc: ddY male mice, 3 per group, electrical stimulation 1 hour after administration): 100%; responders at 100 mg/kg ([1]; read-out: MES (positive number/tested number), 100 mg/kg oral, Slc: ddY male mice, 3 per group, electrical stimulation 1 hour after administration): 100%; anticonvulsant action in maximum electroshock seizure (MES) model test [1]: anticonvulsant action was observed; responders at 50 mg/kg ([2]; read-out: scPTZ (positive number/tested number), 50 mg/kg oral, Slc: ddY male mice, 3 per group, pentetrazol 85 mg/kg s.c. after 1 hour, observed 30 minutes for clonic convulsion): 100%; responders at 100 mg/kg ([2]; read-out: scPTZ (positive number/tested number), 100 mg/kg oral, Slc: ddY male mice, 3 per group, pentetrazol 85 mg/kg s.c. after 1 hour, observed 30 minutes for clonic convulsion): 100%; anticonvulsant action in subcutaneously pentetrazol-injected model (scPTZ) test [2, 7]: anticonvulsant action was observed
CNC(=O)C(F)c1ccccc1-c1ccccc1 (stereo not drawn) [Example 163] | 33.3% | 100% | 0% | – | –
NC(=O)C(F)c1ccccc1-c1ccccc1F (stereo not drawn) [Example 164, 2-fluoro-2-(2′-fluorobiphenyl-2-yl)acetamide] | 100% | 100% | 33.3% | – | –
CNC(=O)C(F)c1ccccc1-c1ccccc1F (stereo not drawn) [Example 165, 2-fluoro-2-(2′-fluorobiphenyl-2-yl)-N-methylacetamide] | 66.7% | 100% | 33.3% | – | –
